Read-outs that look alike come from different tables or passages of the source.
Key:
Rice = conditions: cited from earlier work
Maize [1] = conditions: cited from earlier work
Safflower = conditions: Drought; cited from earlier work
Wheat [2] = conditions: cited from earlier work
tomato seeds = assay: Germination percentage of primed/coated tomato seeds five days after sowing; format: in vivo; conditions: tomato seeds primed with melatonin (Mel 1=50 μM, Mel 2=100 μM), 5 DAS, vs unprimed seeds; p<0.05
Procedure: FIG. 4 depicts germination percentage five days after sowing (5 DAS) in tomato seeds coated (pre-treated) with melatonin concentrations (Mel 1=50 μM, Mel 2=100 μM) in comparison with unprimed seeds (non-treated) and hydrogel coated seeds (Hydro).
Tomato seeds were primed with melatonin at the following concentrations: 5 μM, 10 μM, 15 μM, 25 μM, 50 μM, 100 μM, 200 μM, and 300 μM. Priming was performed by soaking the seeds in the desired melatonin concentration, then vacuum-drying the seeds.
FIG. 4 depicts germination percentage five days after sowing (5 DAS) in tomato seeds coated pre-treated with melatonin concentrations (Mel 1=50 μM, Mel 2=100 μM) in comparison with unprimed seeds (Non-treated) and hydrogel coated seeds (Hydro).

Pigeon Pea = conditions: Calcium; cited from earlier work
Pot Marigold = conditions: Salt; cited from earlier work
Maize [3] = conditions: Salt; cited from earlier work
Sorghum = conditions: Drought; cited from earlier work
Wheat [4] = conditions: Salt; cited from earlier work
Chickpea = conditions: Drought; cited from earlier work
Corn = conditions: Salt; cited from earlier work
Milk Thistle = conditions: Salt; cited from earlier work

O=C(O)c1ccccc1O [SA, salicyclic acid]
Plant Response to SA (Rice; Chilling): Enhanced antioxidant activity | Plant Response to SA (Rice; Chromium): Increased chlorophyll content | Plant Response to SA (Maize [1]; Chilling): Enhanced antioxidant activity | Plant Response to SA (Maize [1]; Lead): Increased nitric oxide content | Plant Response to SA (Safflower): Enhanced antioxidant activity | Plant Response to SA (Wheat [2]; Drought): Balanced nutrient uptake | Plant Response to SA (Wheat [2]; Osmotic): Increased tolerance | Plant Response to SA (Wheat [2]; Salinity): Decreased electrolyte leakage

COc1ccc2[nH]cc(CCNC(C)=O)c2c1 [melatonin]
germination percentage (tomato seeds): significantly increased germination percentage

gibberellin [GA]
Plant Response to GA (Pigeon Pea): Increased germination | Plant Response to GA (Pot Marigold): Increased tolerance | Plant Response to GA (Maize [3]): Alleviated salt stress | Plant Response to GA (Sorghum): Increased CAT and APX activities | Plant Response to GA (Wheat [4]): Increased tolerance | Plant Response to GA (Chickpea): Increased relative water content | Plant Response to GA (Corn): Increased tissue water content | Plant Response to GA (Milk Thistle): Alleviated salt stress
